Data on eight molecules can be found in paper PMC10127221 (ACS Chemical Biology, 2023).

For experiment [1], the target named is T1, CamA (Clostridioides difficile, UniProt Q183J3).
T1 sequence (Q183J3 1-577): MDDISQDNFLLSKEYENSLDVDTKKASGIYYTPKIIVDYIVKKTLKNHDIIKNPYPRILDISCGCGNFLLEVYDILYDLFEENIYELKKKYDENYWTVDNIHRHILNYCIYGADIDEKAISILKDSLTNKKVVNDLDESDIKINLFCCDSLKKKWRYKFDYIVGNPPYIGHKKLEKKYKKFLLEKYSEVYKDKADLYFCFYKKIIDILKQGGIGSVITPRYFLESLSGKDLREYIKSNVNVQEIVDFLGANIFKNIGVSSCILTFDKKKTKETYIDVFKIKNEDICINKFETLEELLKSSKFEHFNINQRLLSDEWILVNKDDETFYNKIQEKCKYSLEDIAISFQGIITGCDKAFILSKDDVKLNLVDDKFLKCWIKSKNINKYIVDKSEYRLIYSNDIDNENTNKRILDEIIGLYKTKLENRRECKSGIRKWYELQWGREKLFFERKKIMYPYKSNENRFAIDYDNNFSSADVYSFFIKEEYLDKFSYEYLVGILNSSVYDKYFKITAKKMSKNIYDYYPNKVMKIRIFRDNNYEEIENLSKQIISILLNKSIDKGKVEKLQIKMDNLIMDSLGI
Nature of the experiment: CamA methylation inhibition assay. The class given is biochemical. The following applies: for inhibition of CamA activity at single concentration / inhibition of CamA activity (selectivity panel): 10 μM compound; for inhibition of CamA activity at single concentration: 50 nM CamA, 40 μM SAM (Figure 1B); for fold difference in CamA inhibition between 11a and 11b: 11a more potent than 11b; for inhibition of CamA activity (selectivity panel): 40 μM SAM (Figure 4A).

Another experiment concerns the target PRMT1 (Homo sapiens, UniProt Q99873). Description: PRMT1 inhibition, fluorescence-based SAHH-coupled assay. It is filed as biochemical. The following applies: for IC50: IC50 PRMT1, 0.1 μM PRMT1, 10 μM SAM, 5 μM H4 peptide (1–21).
The target in a further experiment is T2, Dam (Escherichia coli, UniProt P0AEE8).
T2 sequence (P0AEE8 1-278): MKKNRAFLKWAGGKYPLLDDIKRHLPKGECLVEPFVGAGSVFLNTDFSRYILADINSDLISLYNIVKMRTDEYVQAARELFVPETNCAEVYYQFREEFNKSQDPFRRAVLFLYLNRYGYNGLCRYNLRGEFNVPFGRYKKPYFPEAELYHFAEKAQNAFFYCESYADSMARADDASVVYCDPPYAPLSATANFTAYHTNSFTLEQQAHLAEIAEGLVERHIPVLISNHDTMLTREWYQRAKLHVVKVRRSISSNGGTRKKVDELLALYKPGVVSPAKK
Nature of the experiment: Compound selectivity assay. It is filed as biochemical. Conditions: read-out: inhibition of Dam activity, 10 μM compound, 40 μM SAM (Figure 4C).

For another experiment, the target named is PCIF1 (Homo sapiens, UniProt Q9H4Z3). Description: Compound selectivity assay. It is filed as biochemical. Conditions: read-out: inhibition of PCIF1 activity.
PCIF1, sequence (Q9H4Z3 whole entry): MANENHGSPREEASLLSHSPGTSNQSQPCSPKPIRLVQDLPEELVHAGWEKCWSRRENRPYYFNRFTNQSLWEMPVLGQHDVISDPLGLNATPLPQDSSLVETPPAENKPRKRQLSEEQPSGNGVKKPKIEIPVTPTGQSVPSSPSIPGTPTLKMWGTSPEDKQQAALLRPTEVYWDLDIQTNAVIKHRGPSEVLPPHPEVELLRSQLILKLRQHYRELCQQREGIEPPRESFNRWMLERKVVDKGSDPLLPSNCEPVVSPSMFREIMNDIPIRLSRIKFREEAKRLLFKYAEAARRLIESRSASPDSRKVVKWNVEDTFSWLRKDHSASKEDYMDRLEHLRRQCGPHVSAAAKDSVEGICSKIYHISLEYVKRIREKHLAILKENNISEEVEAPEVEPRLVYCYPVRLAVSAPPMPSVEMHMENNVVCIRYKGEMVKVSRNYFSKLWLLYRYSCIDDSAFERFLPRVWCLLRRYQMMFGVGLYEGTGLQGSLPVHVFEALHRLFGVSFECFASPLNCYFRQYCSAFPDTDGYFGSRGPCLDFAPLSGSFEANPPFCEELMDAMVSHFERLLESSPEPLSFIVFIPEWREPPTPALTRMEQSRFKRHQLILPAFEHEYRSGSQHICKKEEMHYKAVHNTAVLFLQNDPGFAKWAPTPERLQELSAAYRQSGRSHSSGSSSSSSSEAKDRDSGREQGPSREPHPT
The target of another experiment is CcrM (Caulobacter vibrioides, UniProt P0CAW2). Description: Compound selectivity assay. The class given is biochemical. The following applies: read-out: inhibition of CcrM activity, 10 μM compound, 40 μM SAM (Figure 4B).
CcrM, sequence (P0CAW2 whole entry): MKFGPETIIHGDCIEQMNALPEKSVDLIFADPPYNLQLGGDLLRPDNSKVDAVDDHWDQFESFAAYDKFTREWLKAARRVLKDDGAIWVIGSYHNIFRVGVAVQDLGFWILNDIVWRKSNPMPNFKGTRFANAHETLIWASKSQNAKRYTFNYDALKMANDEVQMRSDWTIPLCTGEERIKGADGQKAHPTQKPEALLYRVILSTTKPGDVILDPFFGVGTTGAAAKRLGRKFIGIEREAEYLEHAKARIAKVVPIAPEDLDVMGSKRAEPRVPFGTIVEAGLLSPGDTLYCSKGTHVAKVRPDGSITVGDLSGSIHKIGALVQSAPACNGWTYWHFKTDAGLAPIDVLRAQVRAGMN
A further experiment concerns the target MettL3–MettL14 (Homo sapiens, UniProt Q86U44). Nature of the experiment: Compound selectivity assay. It is filed as biochemical. Conditions: for inhibition at 10 µM: read-out: inhibition of MettL3–MettL14 activity.
Another experiment concerns the target T3, MettL16 (Homo sapiens, UniProt Q86W50).
T3 sequence (Q86W50 1-562): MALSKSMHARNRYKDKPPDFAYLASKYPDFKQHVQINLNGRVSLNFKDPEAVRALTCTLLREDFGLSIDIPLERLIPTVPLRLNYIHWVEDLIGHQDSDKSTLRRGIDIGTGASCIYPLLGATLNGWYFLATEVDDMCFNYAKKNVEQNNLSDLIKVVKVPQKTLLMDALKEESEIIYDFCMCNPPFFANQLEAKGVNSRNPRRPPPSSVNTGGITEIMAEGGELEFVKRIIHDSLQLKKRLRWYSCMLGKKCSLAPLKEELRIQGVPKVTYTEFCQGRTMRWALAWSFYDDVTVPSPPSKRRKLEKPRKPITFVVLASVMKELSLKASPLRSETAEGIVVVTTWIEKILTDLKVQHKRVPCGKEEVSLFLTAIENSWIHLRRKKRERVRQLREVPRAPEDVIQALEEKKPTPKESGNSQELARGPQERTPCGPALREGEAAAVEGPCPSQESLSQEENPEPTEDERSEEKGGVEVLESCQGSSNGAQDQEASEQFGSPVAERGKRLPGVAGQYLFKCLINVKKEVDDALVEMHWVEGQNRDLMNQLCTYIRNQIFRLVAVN
Description: Compound selectivity assay. It is filed as biochemical. Conditions: read-out: inhibition of MettL16 activity, 10 μM compound, 160 μM SAM (Figure 4F).

For the next experiment, the target named is MettL5–Trm112 (Homo sapiens, UniProt Q9NRN9). Nature of the experiment: Compound selectivity assay. Conditions: read-out: inhibition of MettL5–Trm112 activity. The class given is biochemical.
MettL5–Trm112, sequence (Q9NRN9 whole entry): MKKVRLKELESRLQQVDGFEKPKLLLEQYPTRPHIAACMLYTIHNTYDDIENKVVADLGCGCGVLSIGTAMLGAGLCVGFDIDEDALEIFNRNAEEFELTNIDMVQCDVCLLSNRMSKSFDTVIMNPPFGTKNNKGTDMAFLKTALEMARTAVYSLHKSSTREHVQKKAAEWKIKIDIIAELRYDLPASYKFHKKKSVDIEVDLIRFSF
MettL5–Trm112, sequence (Q9UI30 whole entry partner): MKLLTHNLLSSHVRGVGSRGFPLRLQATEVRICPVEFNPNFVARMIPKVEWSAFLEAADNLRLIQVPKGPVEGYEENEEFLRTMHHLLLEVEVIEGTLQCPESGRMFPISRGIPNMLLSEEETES
The target in a further experiment is PRMT3 (Homo sapiens, UniProt O60678). Nature of the experiment: PRMT3 inhibition, fluorescence-based SAHH-coupled assay. The class given is biochemical.
PRMT3, sequence (O60678 211-531): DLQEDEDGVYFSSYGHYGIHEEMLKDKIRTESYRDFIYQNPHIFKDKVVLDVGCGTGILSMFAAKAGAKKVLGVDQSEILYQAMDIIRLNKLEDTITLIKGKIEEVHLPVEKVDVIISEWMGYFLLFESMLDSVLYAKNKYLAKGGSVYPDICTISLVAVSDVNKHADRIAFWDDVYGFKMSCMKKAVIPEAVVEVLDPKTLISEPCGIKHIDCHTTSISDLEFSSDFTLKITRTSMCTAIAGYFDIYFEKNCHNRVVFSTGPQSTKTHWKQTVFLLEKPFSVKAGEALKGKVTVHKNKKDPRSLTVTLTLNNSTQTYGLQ
Experiment [2] addresses T1, CamA. The following applies: read-out: Km of CamA for SAM; previous measurements; cited from earlier work.
In the next experiment the test system is MettL5. Conditions: read-out: SAM Km of MettL5; cited from earlier work.

The structures appear in SMILES notation. “Also recorded” adds a separate entry of the source. Where two headings read alike, the source gives them in different places. Bounds are passed on as bounds.

MettL3–MettL14, sequence (Q86U44 whole entry): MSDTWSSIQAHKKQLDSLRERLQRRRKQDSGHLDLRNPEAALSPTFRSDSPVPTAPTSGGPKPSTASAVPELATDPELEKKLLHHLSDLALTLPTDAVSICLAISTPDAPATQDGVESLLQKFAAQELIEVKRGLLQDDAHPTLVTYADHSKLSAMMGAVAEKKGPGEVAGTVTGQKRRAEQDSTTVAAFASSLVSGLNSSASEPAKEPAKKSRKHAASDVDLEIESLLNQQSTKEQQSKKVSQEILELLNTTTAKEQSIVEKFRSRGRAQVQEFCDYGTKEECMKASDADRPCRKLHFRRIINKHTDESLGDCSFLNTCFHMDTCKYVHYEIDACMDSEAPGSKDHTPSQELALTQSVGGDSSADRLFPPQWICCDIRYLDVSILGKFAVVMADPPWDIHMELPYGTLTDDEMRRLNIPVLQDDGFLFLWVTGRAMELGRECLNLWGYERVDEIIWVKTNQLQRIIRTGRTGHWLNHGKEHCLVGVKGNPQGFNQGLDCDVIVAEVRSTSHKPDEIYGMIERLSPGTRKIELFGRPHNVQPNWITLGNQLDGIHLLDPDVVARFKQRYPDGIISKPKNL
MettL3–MettL14, sequence (Q9HCE5 whole entry partner): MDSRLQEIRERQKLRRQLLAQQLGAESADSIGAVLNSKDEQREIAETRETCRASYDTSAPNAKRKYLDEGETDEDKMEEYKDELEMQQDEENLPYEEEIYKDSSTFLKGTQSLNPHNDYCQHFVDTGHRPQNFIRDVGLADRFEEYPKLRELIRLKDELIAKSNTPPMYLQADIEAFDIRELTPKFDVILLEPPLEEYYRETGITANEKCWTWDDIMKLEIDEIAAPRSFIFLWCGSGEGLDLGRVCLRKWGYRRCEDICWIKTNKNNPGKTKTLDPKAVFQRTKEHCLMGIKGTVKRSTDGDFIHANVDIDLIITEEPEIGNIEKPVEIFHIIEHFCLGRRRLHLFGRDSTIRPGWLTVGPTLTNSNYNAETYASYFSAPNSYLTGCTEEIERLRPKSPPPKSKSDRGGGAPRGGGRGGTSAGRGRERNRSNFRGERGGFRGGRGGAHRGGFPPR
PRMT1, sequence (Q99873 10-352 isoform Q99873-3): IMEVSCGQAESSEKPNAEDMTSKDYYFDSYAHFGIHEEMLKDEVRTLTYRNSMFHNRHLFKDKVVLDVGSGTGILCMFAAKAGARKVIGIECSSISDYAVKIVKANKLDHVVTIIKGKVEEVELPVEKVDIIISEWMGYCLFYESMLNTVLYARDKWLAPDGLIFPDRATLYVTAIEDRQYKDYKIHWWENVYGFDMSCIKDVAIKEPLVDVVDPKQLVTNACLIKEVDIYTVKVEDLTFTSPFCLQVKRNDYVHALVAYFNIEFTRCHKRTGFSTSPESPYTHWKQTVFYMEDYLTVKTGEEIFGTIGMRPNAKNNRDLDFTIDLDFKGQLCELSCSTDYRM

Consider `Nc1ncnc2c1ccn2[C@@H]1O[C@H]([C@H](O)c2ccccc2)[C@@H](O)[C@H]1O` [LLY-283, reference compound], for which, on CamA [1] (10 μM, Figure 1B, also ref 31), the “inhibition of CamA compared with compounds 1–3 (in words)” value was “much weaker inhibition”.

For `N=C(NCCCSC[C@H]1O[C@@H](n2cnc3c(N)ncnc32)[C@H](O)[C@@H]1O)NCc1ccccc1` [6g], the “inhibition of CamA activity at single concentration” value against CamA [1] was roughly 10%.

Turning to `N=C(NCCCSC[C@H]1O[C@@H](n2cnc3c(NCCCc4ccccc4)ncnc32)[C@H](O)[C@@H]1O)NCC1CCCCC1` [11b], the results for the IC50 at PRMT1 and at CamA [1] were 1200 nM and 270 nM, respectively. At PRMT1 (ratio of IC50 values), the “fold reduction of PRMT1 inhibition from that of 6e” value is given as 10 ×. The “fold stronger inhibition of PRMT1 than 11a” value on PRMT1 (ratio of IC50 values) is given as greater than 11 ×. Besides, the inhibition (commonly the share of the control response that was lost under treatment) at 10 µM on Dam was no more than 50%; at PCIF1, no more than 50%; at CcrM it was no more than 50%; on MettL3–MettL14, no more than 50%; on MettL16 it was no more than 50%; at MettL5–Trm112, roughly 50%. In addition, on CamA [1], the “fold difference in CamA inhibition between 11a and 11b” value is given as 1.8 ×.

With `N=C(NCCSC[C@H]1O[C@@H](n2cnc3c(NCCCc4ccccc4)ncnc32)[C@H](O)[C@@H]1O)NCC1CCCCC1` [11a, 1-(cyclohexylmethyl)-3-(2-((((2S,3S,4R,5R)-3,4-dihydroxy-5-(6-((3-phenylpropyl)amino)-9H-purin-9-yl)tetrahydrofuran-2-yl)methyl)thio)ethyl)guanidine], the IC50 (in general, the concentration that gives 50% inhibition) was 14000 nM on PRMT1, roughly 150 nM against CamA [1] and greater than 100000 nM on PRMT3. The “fold reduction of PRMT1 inhibition from that of 6e” value on PRMT1 (ratio of IC50 values) is reported as roughly 116 ×. For the same molecule, affinity at CamA [1] was put at a Ki of 90 nM. On CamA [1], the “inhibition of CamA activity (selectivity panel)” value is listed as no less than 80%. The “fold difference in CamA inhibition between 11a and 11b” value at CamA [1] came to 1.8 ×. In addition, on CamA [1] (ratio of IC50 values), the “fold improvement of CamA inhibition relative to 6e” value came to 10 ×. The “fold improvement of CamA inhibition relative to 7” value on CamA [1] (ratio of IC50 values) came to 5 ×. Also, the “mode of CamA inhibition (Lineweaver–Burk plot)” value on CamA [1] (with respect to SAM) is on record as “competitive inhibition; also recorded: competitive inhibitor of SAM”. For the same molecule, the inhibition at 10 µM at PCIF1, on MettL3–MettL14 and at MettL5–Trm112 was no more than 50% each time.

As for `C[S+](CC[C@H](N)C(=O)[O-])C[C@H]1O[C@@H](n2cnc3c(N)ncnc32)[C@H](O)[C@@H]1O` (stereo partly drawn) [SAM, S-Adenosyl-L-methionine], the Km – broadly, the substrate concentration at which the rate is half of its maximum – on CamA [2] is greater than 17 µM; at CamA [1] (read-out: Km of CamA for SAM, Michaelis–Menten, varying SAM (Figure 2E)), 25 µM; in the experiment on MettL5, 1 µM.

`OC[C@H]1O[C@@H](n2cnc3c(NCCCc4ccccc4)ncnc32)[C@H](O)[C@@H]1O` [compound 7, N6-phenylpropyladenosine]: at PRMT1, the “inhibition of PRMT1 (in words)” value was “does not significantly inhibit; also recorded: inhibits neither”. The inhibition at 10 µM on Dam, on PCIF1, at CcrM, on MettL3–MettL14, on MettL16 and at MettL5–Trm112 was no more than 50% throughout. Further, the “inhibition of PRMT3 (in words)” value at PRMT3 is given as “does not significantly inhibit; also recorded: inhibits neither”.

Regarding `N=C(NCCCSC[C@H]1O[C@@H](n2cnc3c(N)ncnc32)[C@H](O)[C@@H]1O)NCC1CCCCC1` [6e], the inhibition at 10 µM was no more than 50% at Dam; no more than 50% at PCIF1; no more than 50% on CcrM; roughly 50% at MettL3–MettL14; no more than 50% at MettL16; roughly 50% on MettL5–Trm112. For the same molecule, the “inhibition of CamA activity at single concentration” value at CamA [1] was roughly 85%. Also, the “inhibition of CamA activity (selectivity panel)” value against CamA [1] is reported as no less than 80%. In addition, the “fold improved potency of CamA inhibition relative to SGC0946” value at CamA [1] (ratio of IC50 values) was greater than 3 ×. For the same molecule, the “fold weaker inhibition of CamA than of PRMT1” value on CamA [1] (ratio of IC50 values CamA vs PRMT1) is given as 12.5 ×. On CamA [1] (ratio of IC50 values CamA vs PRMT3), the “fold stronger inhibition of CamA than of PRMT3” value is listed as greater than 4 ×. Besides, the IC50 on MettL3–MettL14 is greater than 10000 nM; against PRMT3, 6500 nM.

With `N=C(NCCCSC[C@H]1O[C@@H](n2cnc3c(N)ncnc32)[C@H](O)[C@@H]1O)NC1CCCCC1` [6d], the “inhibition of CamA activity at single concentration” value at CamA [1] was roughly 60%.
